Source: patent US4604380A, “C-23-substituted mycaminosyltylonolide compounds, pharmaceutical compositions and methods of use” (Eli Lilly and Company, priority 1985, dated 1986)
Values after ≈ are worked out from the molar mass of the structure shown. Values joined by “and” are separate entries in the source; they are usually repeats but may differ in a detail not shown here. Equal values may be shown once. Read-outs that look alike come from different tables or passages of the source.

Columns and labels:
[1] = tested on: Streptococcus pyogenes; experiment: ED50 vs Streptococcus pyogenes experimental infection in mice (Table VI); format: in vivo; settings: two doses, several values = results from more than one test
Method: (§1) Certain formula 1a compounds have also shown in vivo antimicrobial activity against experimental bacterial infections. When two doses of test compound were administered to mice in experimental infections, the activity observed was measured as an ED50 value [effective dose in mg/kg to protect 50% of the test animals: see Warren Wick, et al., J. Bacteriol. 81, 233-235 (1961)].

[2] = tested on: Staphylococcus aureus; experiment: ED50 vs. Staphylococcus aureus experimental infection in mice (Table V); format: in vivo; settings: two doses, dose protecting 50% of animals
Method: as §1

[3] = tested on: Streptococcus pyogenes C203; experiment: MIC, standard agar-dilution assay (Table III); format: cell-based
Method: (§2) The MIC's s in Table III were determined by standard agar-dilution assays. The MIC's in Table IV were obtained using a conventional broth-dilution microtiter test.

[4] = tested on: Staphylococcus aureus X400; experiment: MIC, standard agar-dilution assay (Table III); format: cell-based; settings: Staphylococcus aureus, X400
Method: as §2

[5] = tested on: Staphylococcus aureus X1.1; experiment: MIC, standard agar-dilution assay (Table III); format: cell-based
Method: as §2

[6] = tested on: Staphylococcus aureus V41; experiment: MIC, standard agar-dilution assay (Table III); format: cell-based; settings: Staphylococcus aureus V41, penicillin-resistant strain
Method: as §2

[7] = tested on: Staphylococcus aureus S13E; experiment: MIC, standard agar-dilution assay (Table III); format: cell-based
Method: as §2

[8] = tested on: Streptococcus Group D X66; experiment: MIC, standard agar-dilution assay (Table III); format: cell-based
Method: as §2

[9] = tested on: Haemophilus influenzae 76; experiment: MIC, standard agar-dilution assay (Table III); format: cell-based; settings: agar dilution; Haemophilus influenzae 76, ampicillin-resistant strain; read-out: MIC
Method: as §2

[10] = tested on: Staphylococcus epidermidis 222; experiment: MIC, standard agar-dilution assay (Table III); format: cell-based
Method: as §2

[11] = tested on: Haemophilus influenzae C.L.; experiment: MIC, standard agar-dilution assay (Table III); format: cell-based
Method: as §2

[12] = tested on: Staphylococcus epidermidis EPI1; experiment: MIC, standard agar-dilution assay (Table III); format: cell-based; settings: Staphylococcus epidermidis, EPI1
Method: as §2

[13] = tested on: Streptococcus Group D 2041; experiment: MIC, standard agar-dilution assay (Table III); format: cell-based; settings: GROUPD2041
Method: as §2

[14] = tested on: Streptococcus pneumoniae Park I; experiment: microbe, parasite or virus in culture; format: cell-based; settings: read-out: MIC
Method: as §2

[15] = tested on: Streptococcous pneumoniae; experiment: ED50 vs. Streptococcous pneumoniae experimental infection in mice (Table VII); format: in vivo; settings: two doses; for ED50: Mus musculus
Method: as §1

[16] = sc, subcutaneous, read-out: ED50 Subcutaneous
[17] = agar dilution, Streptococcus pyogenes C203, read-out: MIC
[18] = agar dilution, Streptococcus Group D X66, read-out: MIC
[19] = agar dilution, Staphylococcus epidermidis 222, read-out: MIC
[20] = agar dilution, Haemophilus influenzae C.L., ampicillin-sensitive strain, read-out: MIC
[21] = agar dilution, Streptococcus pneumoniae Park I

Row | Compound | ED50 [1, 16] [mg/kg] | ED50 [2, 16] [mg/kg] | MIC [3, 17] [µg/mL] | MIC [4] [µg/mL] | MIC [5] [µg/mL] | MIC [6] [µg/mL] | MIC [7] [µg/mL] | MIC [8, 18] [µg/mL] | MIC [9] [µg/mL] | MIC [10, 19] [µg/mL] | MIC [11, 20] [µg/mL] | MIC [12] [µg/mL] | MIC [13] [µg/mL] | ED50 [15, 16] [mg/kg] | ED50 ([1]; po, read-out: ED50 Oral) [mg/kg] | ED50 ([2]; po, read-out: ED50 Oral) [mg/kg] | MIC ([3]; Streptococcus pyogenes, C203) [µg/mL] | MIC [8] [µg/mL] | MIC [14, 21] [µg/mL] | ED50 ([15]; po, read-out: ED50 Oral) [mg/kg] | further results
1 | CCC1OC(=O)CC(O)C(C)C(OC2OC(C)C(O)C(N(C)C)C2O)C(CC=O)CC(C)C(=O)C=CC(C)=CC1CN1CCC2(CCCCC2)CC1 (centres unmarked) [Compound 27, 23-deoxy-23-(3-azaspiro[5.5]undecan-3-yl)-OMT] | > 10 | 3.08 | 0.25 (≈ 0.341 µM) | 0.5 (≈ 0.682 µM) | 0.5 (≈ 0.682 µM) | 0.5 (≈ 0.682 µM) | 0.5 (≈ 0.682 µM) | 0.25 (≈ 0.341 µM) | 2 (≈ 2.73 µM) | 0.25 (≈ 0.341 µM) | 2 (≈ 2.73 µM) | 0.5 (≈ 0.682 µM) | 0.5 (≈ 0.682 µM) | > 10 |  |  |  |  |  |  | MIC ([14]; Streptococcus pneumoniae): 0.06 µg/mL (≈ 0.0819 µM)
2 | CCC1OC(=O)CC(O)C(C)C(OC2OC(C)C(O)C(N(C)C)C2O)C(CC=O)CC(C)C(=O)C=CC(C)=CC1CN1CCC2CCCCC21 (centres unmarked) [Compound 35, 23-deoxy-23-(octahydro-1H--indol-1-yl)-OMT] | 1.86 |  |  | 0.25 (≈ 0.355 µM) | 0.25 (≈ 0.355 µM) | 0.25 (≈ 0.355 µM) | 0.25 (≈ 0.355 µM) |  | 1 (≈ 1.42 µM) | 0.125 (≈ 0.177 µM) | 0.5 (≈ 0.709 µM) | 0.25 (≈ 0.355 µM) | 0.25 (≈ 0.355 µM) |  | 87.1 | 100 | 0.5 (≈ 0.709 µM) | 0.25 (≈ 0.355 µM) | 1 (≈ 1.42 µM) | 71 | ED50 Subcutaneous ([1]; subcutaneous): 2.5 mg/kg × 2
3 | CCC1OC(=O)CC(O)C(C)C(OC2OC(C)C(O)C(N(C)C)C2O)C(CC=O)CC(C)C(=O)C=CC(C)=CC1CN1CC2CC=CCC2C1 (centres unmarked) [Compound 37] |  | 2.74 |  | 0.25 (≈ 0.356 µM) | 0.25 (≈ 0.356 µM) | 0.25 (≈ 0.356 µM) | 0.25 (≈ 0.356 µM) | 0.125 (≈ 0.178 µM) | 1 (≈ 1.42 µM) |  | 0.5 (≈ 0.711 µM) | 0.25 (≈ 0.356 µM) |  | 1.66 | 87 | 85 | 0.06 (≈ 0.0854 µM) |  | 0.125 (≈ 0.178 µM) | 87 | ED50 Subcutaneous ([2]; subcutaneous): 3.92 mg/kg × 2 and 3.42 mg/kg × 2; MIC ([10]; Staphylococcus epidermidis, 222): 0.06 µg/mL (≈ 0.0854 µM); MIC ([13]; agar dilution, Streptococcus Group D 2041, read-out: MIC): 0.25 µg/mL (≈ 0.356 µM); ED50 Subcutaneous ([15]; subcutaneous): 2.97 mg/kg × 2
4 | CCC1OC(=O)CC(O)C(C)C(OC2OC(C)C(O)C(N(C)C)C2O)C(CC=O)CC(C)C(=O)C=CC(C)=CC1CN(Cc1ccccc1)C1CC2CCC1C2 (centres unmarked) [Compound 6, 23-deoxy-23-[N--benzyl-N--(bicyclo[2.2.1]hept-2-yl)amino]-OMT] | > 10 |  | 0.06 (≈ 0.0768 µM) | 0.25 (≈ 0.32 µM) | 0.25 (≈ 0.32 µM) | 0.25 (≈ 0.32 µM) | 0.25 (≈ 0.32 µM) |  | 0.5 (≈ 0.64 µM) | 0.06 (≈ 0.0768 µM) |  | 0.25 (≈ 0.32 µM) | 0.25 (≈ 0.32 µM) |  | > 100 |  |  | 0.25 (≈ 0.32 µM) | 0.125 (≈ 0.16 µM) |  | MIC ([11]; Haemophilus influenzae): 1 µg/mL (≈ 1.28 µM)
